Data on seven compounds can be found in US4060527A, “Pyrido[2,3-c]-acridine-1-hydroxy-2-carboxylic acid derivatives” (Fuji Chemical Industries, Ltd., priority 1975, dated 1977).

Series [1] relates to Staphylococcus aureus. As to the kind of experiment: Antibacterial activity (MIC) against Staphylococcus aureus as Gram-positive bacterium. It is filed as cell-based. Particulars: Staphylococcus aureus; Table 3, class symbols; read-out: Antibacterial Activity (MIC) Staph. aureus. The procedure:
(§1) Some of the compounds of this invention were tested as to their antibacterial activity (MIC, mcg/ml) against Staph. aureus as Gram-positive bacterium and E. coli as Gram-negative bacterium. In the table, the antibacterial activity of 0.09 to 1.25 mcg/ml. is indicated as A1, and the antibacterial activity of more than 1.25 mcg/ml. and not more than 2.5 mcg/ml. is indicated as A2.

The test system of series [2] is Escherichia coli. As to the kind of experiment: Antibacterial activity (MIC) against Escherichia coli as Gram-negative bacterium. The series is classed as cell-based. The settings on record: Escherichia coli; Table 3, class symbols; read-out: Antibacterial Activity (MIC) E. coli. As for the experimental part: as §1
The subject of series [3] is Staphylococcus aureus. Description: Antibacterial activity (MIC) against Staphylococcus aureus as Gram-positive bacterium. Particulars: for MBC: Table 1, bacteriocidal, read-out: Staphylococcus aureus bacteriocidal action; for MIC: Table 1, bacteriostatic, read-out: Staphylococcus aureus bacteriostatic action (MIC). It is filed as cell-based.
The subject of series [4] is Escherichia coli. Description: Antibacterial activity (MIC) against Escherichia coli as Gram-negative bacterium. The series is classed as cell-based. Particulars: for MBC: Table 1, bacteriocidal, read-out: Escherichia coli bacteriocidal action; for MIC: Table 1, bacteriostatic, read-out: Escherichia coli bacteriostatic action (MIC).
Another series in a line: in vivo. Particulars: mouse.
Series [5] can be described thus: Acute toxicity LD50 on mouse. Particulars: in vivo, sc.
For series [6] the following is noted: in vivo; cited from earlier work.

Converted amounts (≈) assume the structure as drawn. Read-outs that look alike come from different tables or passages of the source.

`Cc1cc2cc3ccccc3nc2c2c(O)c(C(=O)O)cnc12` [Compound F-632]: the MIC in the series with Staphylococcus aureus [1] is 0.09 to 1.25 µg/mL (≈ 0.296 to 4.11 µM); with Escherichia coli [2] it was 0.09 to 1.25 µg/mL (≈ 0.296 to 4.11 µM); in the series with Staphylococcus aureus [3], 1.25 µg/mL (≈ 4.11 µM); in the series with Escherichia coli [4], 0.62 µg/mL (≈ 2.04 µM). Besides, the MBC is 2.5 µg/mL (≈ 8.22 µM) in the series with Staphylococcus aureus [3] and 1.25 µg/mL (≈ 4.11 µM) in the series on Escherichia coli [4]. In addition, the LD50 is 253 mg/kg in “in vivo” (iv), more than 5000 mg/kg in the series “in vivo” (po) and more than 3000 mg/kg in series [5].

For `O=C(O)c1cnc2ccc3c(-c4ccccc4)c4ccccc4nc3c2c1O` [Compound F-633], the MIC in the series on Staphylococcus aureus [1] was 0.09 to 1.25 µg/mL (≈ 0.246 to 3.41 µM); with Escherichia coli [2], 0.09 to 1.25 µg/mL (≈ 0.246 to 3.41 µM); in the series with Staphylococcus aureus [3], 1.25 µg/mL (≈ 3.41 µM); in the series on Escherichia coli [4] it was 1.25 µg/mL (≈ 3.41 µM). The MBC in the series on Staphylococcus aureus [3] and in the series with Escherichia coli [4] was 1.25 µg/mL (≈ 3.41 µM) throughout. Also, the LD50 in the series “in vivo” (iv) was 245 mg/kg; in “in vivo” (po), more than 5000 mg/kg; in series [5], more than 3000 mg/kg.

For the compound `CCCCc1c2ccccc2nc2c1ccc1ncc(C(=O)O)c(O)c12` [Compound F-634], the MIC is 0.09 to 1.25 µg/mL (≈ 0.26 to 3.61 µM) in the series with Staphylococcus aureus [1], 0.09 to 1.25 µg/mL (≈ 0.26 to 3.61 µM) with Escherichia coli [2], 0.25 µg/mL (≈ 0.722 µM) in the series on Staphylococcus aureus [3] and 0.62 µg/mL (≈ 1.79 µM) with Escherichia coli [4]. Further, the MBC in the series on Staphylococcus aureus [3] amounted to 0.25 µg/mL (≈ 0.722 µM); in the series with Escherichia coli [4], 0.62 µg/mL (≈ 1.79 µM). Further, the values for the LD50 (in the series “in vivo” (iv); in “in vivo” (po); in series [5]) were 215 mg/kg, more than 5000 mg/kg and more than 3000 mg/kg, respectively.

In the case of `CCc1c2ccccc2nc2c1ccc1ncc(C(=O)O)c(O)c12` [Compound F-635], the MIC was 0.09 to 1.25 µg/mL (≈ 0.283 to 3.93 µM) in the series on Staphylococcus aureus [1], 0.09 to 1.25 µg/mL (≈ 0.283 to 3.93 µM) with Escherichia coli [2], 0.62 µg/mL (≈ 1.95 µM) in the series with Staphylococcus aureus [3] and 1.25 µg/mL (≈ 3.93 µM) with Escherichia coli [4]. For the same compound, the MBC with Staphylococcus aureus [3] was 0.62 µg/mL (≈ 1.95 µM); in the series on Escherichia coli [4], 1.25 µg/mL (≈ 3.93 µM). Moreover, the results for the LD50 (in “in vivo” (iv); in the series “in vivo” (po); in series [5]) were 186 mg/kg, more than 5000 mg/kg and more than 3000 mg/kg, respectively.

For `Cc1c2ccccc2nc2c1ccc1ncc(C(=O)O)c(O)c12` [Compound F-636], the MIC was 0.09 to 1.25 µg/mL (≈ 0.296 to 4.11 µM) with Staphylococcus aureus [1], 0.09 to 1.25 µg/mL (≈ 0.296 to 4.11 µM) in the series on Escherichia coli [2], 1.25 µg/mL (≈ 4.11 µM) in the series with Staphylococcus aureus [3] and 1.25 µg/mL (≈ 4.11 µM) in the series with Escherichia coli [4]. Moreover, the values for the MBC in the series with Staphylococcus aureus [3] and with Escherichia coli [4] were 1.25 µg/mL (≈ 4.11 µM) and 2.5 µg/mL (≈ 8.22 µM), respectively. Also, the LD50 in the series “in vivo” (iv) was 235 mg/kg; in “in vivo” (po) it was more than 5000 mg/kg; in series [5], more than 3000 mg/kg.

Consider `Cc1ccc2nc3c(ccc4ncc(C(=O)O)c(O)c43)cc2c1` [Compound F-637], for which the MIC is 0.09 to 1.25 µg/mL (≈ 0.296 to 4.11 µM) in the series with Staphylococcus aureus [1], 0.09 to 1.25 µg/mL (≈ 0.296 to 4.11 µM) in the series with Escherichia coli [2], 1.25 µg/mL (≈ 4.11 µM) in the series with Staphylococcus aureus [3] and 0.62 µg/mL (≈ 2.04 µM) in the series with Escherichia coli [4]. The MBC with Staphylococcus aureus [3] came to 2.5 µg/mL (≈ 8.22 µM); in the series with Escherichia coli [4], 1.25 µg/mL (≈ 4.11 µM). Further, the values for the LD50 (in the series “in vivo” (iv); in “in vivo” (po); in series [5]) were 256 mg/kg, more than 5000 mg/kg and more than 3000 mg/kg, respectively.

Consider acriflavin, for which the toxicity result in series [6] is “fairly high toxicity, and exhibit high toxicity in internal administration”.
